According to US20210198277A1, “AMINE-SUBSTITUTED ARYL OR HETEROARYL COMPOUNDS” (Epizyme, Inc., priority 2016, published 2021):

Key:
human EHMT2 913-1193 = molecular target: T1, human EHMT2 913-1193 (Homo sapiens, UniProt Q96KQ7); assay: EHMT2 enzyme assay on histone peptide substrate (EHMT2 PEP); format: biochemical; settings: Table III; read-out: EHMT2 PEP (IC50 μM)
T1 construct: recombinant purified human EHMT2 913-1193, Viva; purchased Viva
T1 sequence (Q96KQ7 913-1193): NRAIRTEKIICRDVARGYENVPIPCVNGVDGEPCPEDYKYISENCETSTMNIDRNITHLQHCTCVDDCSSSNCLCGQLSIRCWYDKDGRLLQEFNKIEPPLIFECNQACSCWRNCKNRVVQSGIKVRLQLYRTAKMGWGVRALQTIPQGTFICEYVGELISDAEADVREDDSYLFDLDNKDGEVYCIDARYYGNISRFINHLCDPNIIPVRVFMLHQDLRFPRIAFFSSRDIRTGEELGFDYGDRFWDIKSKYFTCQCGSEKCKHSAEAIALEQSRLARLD
In short: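 Inhibition is measured as reduced tritium incorporation into a biotinylated histone peptide from ^3H-SAM. The enzyme (0.031 nM) sees compound for 30 minutes before a 60-minute room-temperature reaction, which unlabeled SAM quenches prior to streptavidin Flashplate capture.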

EHMT2 = molecular target: T2, EHMT2 (Homo sapiens, UniProt Q96KQ7); assay: MDA-MB-231 H3K9me2 in-cell Western assay (EHMT2 ICW); format: cell-based; settings: Table III; MDA-MB-231 H3K9me2 in-cell Western; read-out: EHMT2 ICW (IC50 μM)
T2 construct: host or cells: MDA-MB-231
T2 sequence (Q96KQ7 1-1210): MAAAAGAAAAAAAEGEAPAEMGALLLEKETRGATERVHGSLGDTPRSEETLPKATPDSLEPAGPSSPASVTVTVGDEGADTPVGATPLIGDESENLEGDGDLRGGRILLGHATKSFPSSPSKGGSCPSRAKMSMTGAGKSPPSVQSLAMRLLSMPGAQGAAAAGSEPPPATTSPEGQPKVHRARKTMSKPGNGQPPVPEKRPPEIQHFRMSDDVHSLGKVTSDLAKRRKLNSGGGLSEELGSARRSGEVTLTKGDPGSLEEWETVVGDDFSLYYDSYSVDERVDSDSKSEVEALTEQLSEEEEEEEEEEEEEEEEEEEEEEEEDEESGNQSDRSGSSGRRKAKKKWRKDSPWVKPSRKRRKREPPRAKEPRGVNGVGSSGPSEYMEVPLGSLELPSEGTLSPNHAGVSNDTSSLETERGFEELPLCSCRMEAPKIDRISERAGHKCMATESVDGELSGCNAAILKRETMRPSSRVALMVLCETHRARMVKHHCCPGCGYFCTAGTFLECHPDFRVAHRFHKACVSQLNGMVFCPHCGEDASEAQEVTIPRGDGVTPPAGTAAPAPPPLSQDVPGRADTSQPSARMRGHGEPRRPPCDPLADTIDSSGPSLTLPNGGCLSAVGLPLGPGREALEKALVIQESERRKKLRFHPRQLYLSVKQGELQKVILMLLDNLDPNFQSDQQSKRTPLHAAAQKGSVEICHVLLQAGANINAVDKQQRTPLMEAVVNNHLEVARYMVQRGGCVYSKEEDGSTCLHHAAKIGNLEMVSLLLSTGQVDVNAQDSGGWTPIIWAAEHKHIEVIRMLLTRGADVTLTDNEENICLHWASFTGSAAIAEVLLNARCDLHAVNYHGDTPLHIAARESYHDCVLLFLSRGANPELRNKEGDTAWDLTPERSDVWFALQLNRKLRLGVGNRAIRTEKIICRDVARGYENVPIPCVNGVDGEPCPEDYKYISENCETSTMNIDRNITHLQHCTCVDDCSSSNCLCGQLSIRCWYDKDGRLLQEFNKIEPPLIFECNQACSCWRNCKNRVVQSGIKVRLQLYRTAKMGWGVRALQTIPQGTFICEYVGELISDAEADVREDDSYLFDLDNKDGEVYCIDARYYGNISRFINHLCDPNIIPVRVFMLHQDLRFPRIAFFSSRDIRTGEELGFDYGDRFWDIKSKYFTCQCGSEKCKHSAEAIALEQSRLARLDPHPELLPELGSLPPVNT
Source text: RPMI/Glutamax medium, Penicillin-Streptomycin, Heat Inactivated Fetal Bovine Serum, and D-PBS were purchased from Life Technologies (Grand Island, N.Y., USA). Odyssey blocking buffer, 800CW goat anti-mouse IgG (H+L) antibody, and Licor Odyssey Infrared Scanner were purchased from Licor Biosciences, Lincoln, Nebr., USA. […] 16% Paraformaldehyde was purchased from Electron Microscopy Sciences, Hatfield, Pa., USA).MDA-MB-231 cells were maintained in complete growth medium (RPMI supplemented with 10% v/v heat inactivated fetal bovine serum) and cultured at 37° C. under 5% CO2. UNC0638 was purchased from Sigma-Aldrich (St. Louis, Mo., USA).
Compound (100 nL) was added directly to 384-well cell plate. MDA-MB-231 cells (ATCC) were seeded in assay medium (RPMI/Glutamax supplemented with 10% v/v heat inactivated fetal bovine serum and 1% Penicillin/Streptomycin, Life Technologies) at a concentration of 3,000 cells per well to a Poly-D-Lysine coated 384-well cell culture plate with 50 μL per well. […] Plates were incubated at room temperature for 30 minutes and then incubated at 37° C., 5% CO2 for additional 48 hours. After the incubation, 50 μL per well of 8% paraformaldehyde (Electron Microscopy Sciences) in PBS was added to the plates and incubated at room temperature for 20 minutes. […] Next, 60 μL per well of Odyssey blocking buffer (Licor Biosciences) was added to each plate and incubated for 1 hour at room temperature. Blocking buffer was removed and 20 μL of monoclonal primary antibody α-H3K9me2 (Abcam) diluted 1:800 in Odyssey buffer with 0.1% Tween 20 (v/v) were added and plates were incubated overnight (16 hours) at 4° C. Plates were washed 5 times with 100 μL per well of wash buffer. Next 20 μL per well of secondary antibody was added (1:500 800CW donkey anti-mouse IgG (H+L) antibody (Licor Biosciences), 1:1000 DRAQ5 (Cell Signaling Technology) in Odyssey buffer with 0.1% Tween 20 (v/v)) and incubated for 1 hour at room temperature. The plates were washed 5 times with 100 μL per well wash buffer then 2 times with 100 μL per well of water. Plates were allowed to dry at room temperature then imaged on a Licor Odyssey Infrared Scanner (Licor Biosciences) which measured integrated intensity at 700 nm and 800 nm wavelengths. Both 700 and 800 channels were scanned.
First, the ratio for each well was determined by:
The average of the ratio values for each well was calculated and used to determine the percent inhibition for each test well in the plate. Control compound was serially diluted three-fold in DMSO for a total of 10 test concentrations beginning at 1 μM. Percent inhibition was calculated as: […]
IC50 curves were generated using triplicate wells per concentration of compound. […] IC50 values were calculated using a non-linear regression (variable slope-four parameter fit model) with by the following formula: […]

Row | SMILES | IC50 (human EHMT2 913-1193) [µM] | IC50 (EHMT2) [µM]
1 | CNc1ccnc(Nc2ccc(OC)c(OCCCN3CCC3)c2)n1 [Compound 281] | < 0.1 | 0.1 to 1
2 | CNc1ccnc(Nc2ccc(OC)c(OCCCN3CCCC3)c2)n1 [Compound 399] | – | 0.1 to 1
